Laboratory results as given in paper PMC9387934, “Randomized single oral dose phase 1 study of safety, tolerability, and pharmacokinetics of Iminosugar UV-4 Hydrochloride (UV-4B) in healthy subjects” (PLoS Neglected Tropical Diseases, 2022).
Where a name gives a salt, the structure may show the parent alone.

Assay: Phase 1a single ascending dose study: UV-4 in pooled urine, urinary recovery and renal clearance
Format: in vivo, human
Conditions: for CL renal: human, po; for Cumulative Amount Ae(0-last): corresponds to Ae(0-48); for Cumulative Percent fe(0-last): corresponds to fe(0-48)
Description: Serial blood samples were collected at pre-dose (0 hour) and 0.5, 1, 1.5, 2, 2.5, 3, 4, 6, 9, 12, 18, 24, 36, and 48 hours post-dose for assessment of UV-4 concentrations in plasma. Pooled urine samples were collected at pre-dose (-12 to 0 hour) and from 0 to 6, 6 to 12, 12 to 24, and 24 to 48 hours post-dose for assessment of UV-4 concentrations in urine. Plasma and urine concentrations of UV-4 were determined by means of validated, sensitive, and specific high-performance liquid chromatography/tandem mass spectrometric (LC-MS/MS) assays. UV-4 plasma and urine concentrations and PK parameters were listed and summarized by dose, as appropriate. Only the 48 subjects who received active investigational product were included in the PK analysis population.
8.2.3 Specimen Preparation, Handling, and Shipping
8.2.3.1 Instructions for Specimen Preparation, Handling, and Storage
The collected PK blood samples (2 mL) will be placed on ice after blood draw, and within 1 hour centrifuged at room temperature at approximately 3000 revolutions per minute for 15 minutes. Plasma will then be harvested and split into 4 aliquots of approximately 250 μ L and stored frozen at -20°C until shipped.
Urine samples (approximately 10 mL) for determination of UV-4 concentrations in urine will be taken from the total volume provided during each collection period. The total volume of each urine collection will be recorded along with the start/stop time for each urine collection interval.
Analysis of plasma and urine for UV-4 will be performed by the qualified bioanalytical laboratory, Quintiles Bioservices, Inc., Ithaca, New York 14950. Instructions for the proper preparation, handling, storage and shipping of specimens will be provided separately in a study-specific laboratory manual (i.e., Biopacket).
8.2.3.2 Specimen Shipment […]
The following single-dose urine PK parameters will be estimated from the UV-4 urine concentration-time data collected, as appropriate:
Ae Amount of UV-4 excreted in urine unchanged, calculated for each collection interval and cumulatively across intervals fe Fraction of UV-4 excreted in urine unchanged, calculated for each collection interval and cumulatively across intervals […]
Additional UV-4 PK parameters may be calculated at the discretion of the […]
Plasma concentrations and plasma and urine PK parameters will be summarized by treatment using descriptive statistics, as appropriate. Figures for the arithmetic mean (and SD) concentration-time data will be presented for all doses on both a linear and semi-logarithmic scale. Individual concentration-time data will be graphically presented on linear and semi-logarithmic scales. Scatter plots of individual and geometric mean PK parameters versus dose will be presented. Additional graphical presentations of PK data may be added at the discretion of the PK analyst.
Dose proportionality of Cmax, AUC(0-last), and AUC(0-inf) will be assessed graphically and statistically using the power model approach with the logarithm of PK parameters AUC(0-inf) and Cmax as the dependent variables and the logarithm of the dose as the independent variable: ([AUC(0-inf), AUC(0-last), or Cmax]=α *doseβ).
11.4.7 Deviation from Original Analysis Plan
Deviations from the formal statistical analysis plan will be noted in the final Clinical Study

[1] = urine, Cohort 1, 3 mg single oral dose, Ar Mean
[2] = urine, Cohort 1, 3 mg single oral dose, Median
[3] = urine, Cohort 2, 10 mg single oral dose, Ar Mean
[4] = urine, Cohort 2, 10 mg single oral dose, Median
[5] = urine, Cohort 3, 30 mg single oral dose, Ar Mean
[6] = urine, Cohort 3, 30 mg single oral dose, Median
[7] = urine, Cohort 4, 90 mg single oral dose, Ar Mean
[8] = urine, Cohort 4, 90 mg single oral dose, Median

For `COCCCCCCCCCN1C[C@H](O)[C@@H](O)[C@H](O)[C@H]1CO` [UV-4B, N-(9’-methoxynonyl)-1-deoxynojirimycin hydrochloride], the “fe(0-last)” value (3 mg single oral dose, Ar Mean) was 39.8%, the CL renal (both sexes, urine and plasma, 3 mg, 3 mg single oral dose, Ar Mean) was 242 mL/min and the CL renal (both sexes, urine and plasma, 3 mg, 3 mg single oral dose, Geo Mean) was 238 mL/min. It also gave a CL renal (both sexes, urine and plasma, 1000 mg, 1000 mg single oral dose, Ar Mean) of 198 mL/min, a CL renal (both sexes, urine and plasma, 1000 mg, 1000 mg single oral dose, Geo Mean) of 195 mL/min and a CL renal (both sexes, urine, 10 mg, 10 mg single oral dose, Geo Mean) of 190 mL/min. It also gave a CL renal (both sexes, urine, 30 mg, 30 mg single oral dose, Ar Mean) of 210 mL/min, a CL renal (both sexes, urine, 30 mg, 30 mg single oral dose, Geo Mean) of 208 mL/min and a CL renal (both sexes, urine, 90 mg, 90 mg single oral dose, Ar Mean) of 228 mL/min. It also gave a CL renal (both sexes, urine, 90 mg, 90 mg single oral dose, Geo Mean) of 227 mL/min, a CL renal (both sexes, urine, 180 mg, 180 mg single oral dose, Ar Mean) of 233 mL/min and a CL renal (both sexes, urine, 180 mg, 180 mg single oral dose, Geo Mean) of 232 mL/min. The CL renal (both sexes, urine, 360 mg, 360 mg single oral dose, Ar Mean) was 235 mL/min, the CL renal (both sexes, urine, 360 mg, 360 mg single oral dose, Geo Mean) was 228 mL/min and the CL renal (both sexes, urine, 720 mg, 720 mg single oral dose, Ar Mean) was 185 mL/min. For the same compound, the CL renal (both sexes, urine, 720 mg, 720 mg single oral dose, Geo Mean) was 182 mL/min, the CL renal (urine, 10 mg, 10 mg single oral dose, Ar Mean) was 195 mL/min and the “By-Interval Amount Ae(0-6)” value [1] was 0.607 mg. For the same compound, the “By-Interval Amount Ae(6-12)” value [1] was 0.215 mg, the “By-Interval Amount Ae(12-24)” value [1] was 0.202 mg and the “By-Interval Amount Ae(24-48)” value [1] was 0.170 mg. The “Cumulative Amount Ae(0-12)” value [1] was 0.822 mg, the “Cumulative Amount Ae(0-24)” value [1] was 1.02 mg and the “Cumulative Amount Ae(0-last)” value [1] was 1.19 mg. The “By-Interval Amount Ae(0-6)” value [2] was 0.624 mg, the “By-Interval Amount Ae(6-12)” value [2] was 0.216 mg and the “By-Interval Amount Ae(12-24)” value [2] was 0.230 mg. The “By-Interval Amount Ae(24-48)” value [2] was 0.173 mg, the “By-Interval Percent fe(0-6)” value [2] was 20.8% and the “By-Interval Percent fe(6-12)” value [2] was 7.19%. For the same compound, the “By-Interval Percent fe(12-24)” value [2] was 7.65%, the “By-Interval Percent fe(24-48)” value [2] was 5.75% and the “Cumulative Amount Ae(0-12)” value [2] was 0.892 mg. For the same compound, the “Cumulative Amount Ae(0-24)” value [2] was 1.08 mg, the “Cumulative Percent fe(0-12)” value [2] was 29.7% and the “Cumulative Percent fe(0-24)” value [2] was 36.0%. For the same compound, the “Cumulative Amount Ae(0-last)” value [2] was 1.23 mg, the “Cumulative Percent fe(0-last)” value [2] was 40.9% and the “By-Interval Amount Ae(0-6)” value [3] was 2.67 mg. For the same compound, the “By-Interval Amount Ae(6-12)” value [3] was 0.859 mg, the “By-Interval Amount Ae(12-24)” value [3] was 0.608 mg and the “By-Interval Amount Ae(24-48)” value [3] was 0.503 mg. The “By-Interval Percent fe(0-6)” value [3] was 26.7%, the “By-Interval Percent fe(6-12)” value [3] was 8.59% and the “By-Interval Percent fe(12-24)” value [3] was 6.08%. The “By-Interval Percent fe(24-48)” value [3] was 5.03%, the “Cumulative Amount Ae(0-12)” value [3] was 3.53 mg and the “Cumulative Amount Ae(0-24)” value [3] was 4.13 mg. The “Cumulative Percent fe(0-12)” value [3] was 35.3%, the “Cumulative Percent fe(0-24)” value [3] was 41.3% and the “Cumulative Amount Ae(0-last)” value [3] was 4.64 mg. For the same compound, the “Cumulative Percent fe(0-last)” value [3] was 46.4%, the “By-Interval Amount Ae(0-6)” value [4] was 2.77 mg and the “By-Interval Amount Ae(6-12)” value [4] was 0.883 mg. For the same compound, the “By-Interval Amount Ae(12-24)” value [4] was 0.635 mg, the “By-Interval Amount Ae(24-48)” value [4] was 0.503 mg and the “By-Interval Percent fe(0-6)” value [4] was 27.7%. For the same compound, the “By-Interval Percent fe(6-12)” value [4] was 8.83%, the “By-Interval Percent fe(12-24)” value [4] was 6.35% and the “By-Interval Percent fe(24-48)” value [4] was 5.03%. The “Cumulative Amount Ae(0-12)” value [4] was 3.71 mg, the “Cumulative Amount Ae(0-24)” value [4] was 4.34 mg and the “Cumulative Percent fe(0-12)” value [4] was 37.1%. The “Cumulative Percent fe(0-24)” value [4] was 43.4%, the “Cumulative Amount Ae(0-last)” value [4] was 4.82 mg and the “Cumulative Percent fe(0-last)” value [4] was 48.2%. For the same compound, the “By-Interval Amount Ae(0-6)” value [5] was 10.6 mg, the “By-Interval Amount Ae(6-12)” value [5] was 2.45 mg and the “By-Interval Amount Ae(12-24)” value [5] was 1.61 mg. The “By-Interval Amount Ae(24-48)” value [5] was 0.887 mg, the “By-Interval Percent fe(0-6)” value [5] was 35.3% and the “By-Interval Percent fe(6-12)” value [5] was 8.16%. The “By-Interval Percent fe(12-24)” value [5] was 5.36%, the “By-Interval Percent fe(24-48)” value [5] was 2.96% and the “Cumulative Amount Ae(0-12)” value [5] was 13.0 mg. For the same compound, the “Cumulative Amount Ae(0-24)” value [5] was 14.6 mg, the “Cumulative Percent fe(0-12)” value [5] was 43.4% and the “Cumulative Percent fe(0-24)” value [5] was 48.8%. The “Cumulative Amount Ae(0-last)” value [5] was 15.5 mg, the “Cumulative Percent fe(0-last)” value [5] was 51.7% and the “By-Interval Amount Ae(0-6)” value [6] was 10.5 mg. The “By-Interval Amount Ae(6-12)” value [6] was 2.47 mg, the “By-Interval Amount Ae(12-24)” value [6] was 1.55 mg and the “By-Interval Amount Ae(24-48)” value [6] was 0.96 mg. The “By-Interval Percent fe(0-6)” value [6] was 34.9%, the “By-Interval Percent fe(6-12)” value [6] was 8.24% and the “By-Interval Percent fe(12-24)” value [6] was 5.14%. For the same compound, the “By-Interval Percent fe(24-48)” value [6] was 3.20%, the “Cumulative Amount Ae(0-12)” value [6] was 12.9 mg and the “Cumulative Amount Ae(0-24)” value [6] was 14.6 mg. For the same compound, the “Cumulative Percent fe(0-12)” value [6] was 43.0%, the “Cumulative Percent fe(0-24)” value [6] was 48.7% and the “Cumulative Amount Ae(0-last)” value [6] was 15.5 mg. The “Cumulative Percent fe(0-last)” value [6] was 51.7%, the “By-Interval Amount Ae(0-6)” value [7] was 38.1 mg and the “By-Interval Amount Ae(6-12)” value [7] was 6.05 mg. The “By-Interval Amount Ae(12-24)” value [7] was 3.89 mg, the “By-Interval Amount Ae(24-48)” value [7] was 1.61 mg and the “By-Interval Percent fe(0-6)” value [7] was 42.2%. The “By-Interval Percent fe(6-12)” value [7] was 6.72%, the “By-Interval Percent fe(12-24)” value [7] was 4.32% and the “By-Interval Percent fe(24-48)” value [7] was 1.79%. For the same compound, the “Cumulative Amount Ae(0-12)” value [7] was 44.1 mg, the “Cumulative Amount Ae(0-24)” value [7] was 48.0 mg and the “Cumulative Percent fe(0-12)” value [7] was 49.0%. The “Cumulative Percent fe(0-24)” value [7] was 53.3%, the “Cumulative Amount Ae(0-last)” value [7] was 49.6 mg and the “Cumulative Percent fe(0-last)” value [7] was 55.1%. The “By-Interval Amount Ae(0-6)” value [8] was 39.3 mg, the “By-Interval Amount Ae(6-12)” value [8] was 6.36 mg and the “By-Interval Amount Ae(12-24)” value [8] was 4.01 mg.
